{
  "source": "patent US12616759B2",
  "about": "“Uses of labeled HSP90 inhibitors” (Sloan-Kettering Institute for Cancer Research, priority 2011, dated 2026)",
  "key": {"[1]": {"system": "MV4-11 and MOLM-13 cells", "experiment": "fluorescent PU-H71 derivatives in AML cell lines: flow cytometry, viability"}, "[2]": {"system": "oncogenic HSP90", "experiment": "PU-FITC binding to EpCAM+ circulating tumor cells in PBMCs", "type": "cell-based, human", "conditions": "CTCs, patient with HER2+ metastatic breast cancer", "procedure": "FIGS. 20A and 20B. PU-H71-FITC2 accumulation in EpCAM+ Circulating Tumor Cells: PBMC's isolated from whole blood were pre-treated with PU-FITC or controls (PU-FITC9, DMSO, 1 μM/2×10^6 cells/ml, 4 hrs). Cells were then stained with CD45, CD14 and EpCAM antibodies. FIG. 20A Cells are gated to exclude dead cells. Viable cells are then gated to determine EpCAM+vs CD45+ cells. Monocytes are excluded from the analysis by gating the CD45+ cells further as FSC vs. CD14. FIG. 20B Histogram plots showing the PU-FITC Median florescence intensity (MFI) of CD45+CD14− cells (blue) and EpCAM+ cells (Red). The drug accumulation in EpCAM+ cells is calculated as the ratio of MFI EpCAM+/MFI CD45+CD14− (circulating tumor cells/leukocytes) after subtracting the values of the DMSO and PU-FITC9 controls (used to control for non-specific and background binding).\nMeasure PU-FITC binding to EpCAM+ circulating tumor cells in PBMC's: All experimental blood sampling procedures were performed under the Institutional Review Board-approved protocols at Memorial Sloan Kettering Cancer Center. […] PBMC's are isolated on ficoll gradients, cells are counted and viability determined by trypan blue dye exclusion assay. PBMC's are spun down and re-suspended to 2×10^6 cells/ml. […] Values are calculated as a ratio of the MFI of Tumor (EpCAM+CD45−CD14−): MFI of EpCAM-CD45+CD14− cells. […]"}, "[3]": {"system": "oncogenic HSP90", "experiment": "PU-H71-FITC2 binding to pancreatic and breast cancer cell lines relative to HL-60 versus viability"}, "[4]": {"system": "oncogenic HSP90", "experiment": "PU-H71-FITC2 binding to primary leukemia blasts relative to normal lymphocytes, flow cytometry", "type": "cell-based, human", "conditions": "blast crisis CML cells", "procedure": "Cell viability was analyzed by flow cytometry (BD Biosciences). […] Cells were washed and then analyzed by flow cytometry. Normal mouse IgG2a-PE was used as isotype control.\nAnalysis is performed using FlowJo software."}, "[5]": {"system": "HSP70", "experiment": "HSP70 induction in hippocampus of 3×Tg AD mice", "type": "in vivo", "conditions": "i.p., 24 h", "procedure": "FIGS. 43A, 43B, and 43C. 8-10 mo 3×Tg mice were administered 75 mg/kg (FIG. 43A) or the indicated dose of the HSP90 inhibitor PU-HZ151 (FIG. 43B) and the PD marker, HSP70, was measured in hippocampus, an afflicted brain region in this model of AD, at 24 h post-administration. HSP70 is induced when HSP90 is inhibited and its induction is an indicator that therapeutic levels of the HSP90 inhibitor were delivered to the brain region of interest. FIG. 43C: Levels of the HSP90 inhibitor in the indicated brain regions and plasma were determined by LC-MS/MS after the administration of 50 mg/kg PU-HZ151. Hsp90 inhibitor levels at different times after single ip injection are shown in micromolar units. Brain exposure was also measured as the area under the curve (AUC).\nPharmacodynamic analyses. For protein analysis, selected brain region (hippocampus) was homogenized in SDS lysis buffer (50 mM Tris pH 7.4, 2% SDS) and subjected to Western blot analysis. Levels of proteins were be analyzed by immunoblotting with anti-Hsp70 and Hsp90 antibodies."}, "[6]": {"experiment": "in vivo", "conditions": "3×Tg AD, mouse"}},
  "data": [
    {"smiles": "CC(C)N(CCCn1c(Sc2cc3c(cc2I)OCO3)nc2c(N)ncnc21)C(=S)Nc1ccc(-c2c3ccc(=O)cc-3oc3cc(O)ccc23)c(C(=O)O)c1", "note": "[PU-H71-FITC2]", "values": [
      {"measurement": "permeation of live cells and target binding", "setting": "[1]; 1 μM", "value": "permeate live cells and bind to the target"},
      {"measurement": "effect on viability of leukemia cells", "setting": "[1]; MOLM-13, 1 μM, 24 h", "value": "reduce the viability of leukemia cells"},
      {"measurement": "fold more bound by tumor cells than leukocytes (CD45+CD14− cells)", "setting": "[2]", "value": "around 84 fold"},
      {"measurement": "binding to HL-60 leukemia cells", "setting": "[3]", "value": "low to no binding"},
      {"measurement": "binding relative to normal lymphocytes", "setting": "[4]", "value": "over 4 fold"}
    ]},
    {"smiles": "CC(C)(C)CNCCn1c(Sc2cc3c(cc2I)OCO3)nc2c(N)ncnc21", "note": "[PU-HZ151]", "values": [
      {"measurement": "lowest administered dose with significant induction of HSP70", "setting": "[5]", "value": 10, "unit": "mg/kg"},
      {"measurement": "Kp", "setting": "[6]", "value": 2.5}
    ]}
  ]
}
